Data from patent publication US20220152090A1, “METHOD FOR TREATING AMYLOIDOGENIC DISEASE” (priority 2020, published 2022).

How the values were obtained:
SH-SY5Y cells = assay: Cell viability (CCK8) of Aβ42-treated neuronal cells; type: cell-based
Protocol: The general procedures used for preparing the transient LPS-Aβ42 complex and the validation of cell cytotoxicity were as follows. First, Aβ42 (100 μM) and LPS (1000 nM, derived from Escherichia coli O111:B4, Sigma-Aldrich) were added to each group medium containing 2.5% dimethyl sulfoxide (DMSO) and then sterilized by using UV light. The medium was then replaced and the remaining mixture was incubated for 72 hours at 37° C. in 5% CO2 humidified air. Cell viability was measured using the CCK8 (Sigma-Aldrich 96992) assay according to the manufacturer's protocol. A 0.22-μm filter (non-pyogenic, Millex®-GV) was used to remove unbound LPS, if needed, in the LPS-Aβ42 solution.
Cell viability. Neural cells were maintained in MEM (Gibco 11095-080) supplemented with 10% FBS and 1×MEM NEAA (Gibco 11140-050). Neural SH-SY5Y cells were plated at a density of 8000 cells per well in 96-well plates (Costar 3599) and allowed to attach overnight at 37° C. in 5% CO2 humidified air. Aβ42 (100 μM), LPS (1000 nM), SAuM (1000 nM), or colistin (1000 nM) were then added to each group medium containing 2.5% dimethyl sulfoxide (DMSO) and sterilized by using UV light. The medium was then replaced every day and the remaining mixture was incubated for 72 hours at 37° C. in 5% CO2 humidified air. Cell viability was measured using the CCK8 (Sigma-Aldrich 96992) assay according to the manufacturer's protocol. A 0.22-μm filter (non-pyogenic, Millex®-GV) was used to remove unbound LPS, if needed, in the LPS-Aβ42 solution.

Aβ42 = target: T1, Aβ42 (Homo sapiens, UniProt P05067); assay: Western blot of Aβ42 degradation in SH-SY5Y cells; type: cell-based; conditions: for LPS-induced degradation of Aβ42 in the presence of inhibitor: SH-SY5Y; for Aβ42 degradation in SH-SY5Y cells co-treated with the agent: Western blotting, FIG. 13
T1 construct: Aβ42 peptides were collected from the entire volume of the cell culture medium and total cell lysates; host or cells: Peptide added to the medium of SH-SY5Y cells; not made by the cells
Protocol: Western Blots. To assess the level of Aβ42 in the cell culture medium, Aβ42 peptides were collected from the entire volume of the cell culture medium and total cell lysates and mixed with protein sample buffer (final 0.1 M Tris-HCl, pH6.8, 10% glycerol, 2% SDS, 1% […], and 0.01% bromophenol blue) for Western blot analysis. The samples of cell mixture were analyzed by SDS-PAGE gel electrophoresis and transferred to a PVDF membrane (Millipore). After blocking with blocking buffer containing 5% w/v nonfat dry milk in PBST (1× phosphate-buffered saline and 0.1% Tween 20) at room temperature for 1 h, the membrane was incubated with a primary antibody diluted in the blocking buffer at 4° C. overnight. After hybridization with primary antibody, the membrane was washed three times with PBST before the addition of an HRP-conjugated secondary antibody against the primary antibody. The membrane was then washed three times with PBST before immunoreactive bands were detected by chemiluminescence (PerkinElmer) or Ponceau S staining (Bersting Technology).

T1 sequence (P05067 672-713 limits assumed): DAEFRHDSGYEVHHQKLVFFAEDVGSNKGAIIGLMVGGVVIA

Compound	rescue effect of LPS against Aβ42 neuronal toxicity in the presence of inhibitor (SH-SY5Y cells)	LPS-induced degradation of Aβ42 in the presence of inhibitor (Aβ42)	Aβ42 degradation in SH-SY5Y cells co-treated with the agent (Aβ42)
colistin	abolished		
CN(C)CCCN1c2ccccc2Sc2ccc(Cl)cc21 [chlorpromazine]		suppressed	
Cn1cnc(=N)c2[nH]cnc21 [3MA, methyladenine]	increasing the cell death	decreasing the degradation of Aβ42	
CCCCCCCCCCC[C@@H](O)CC(=O)N[C@H]1[C@H](OC[C@H]2O[C@H](OP(=O)(O)O)[C@H](NC(=O)C[C@H](O)CCCCCCCCCCC)[C@@H](OC(=O)C[C@H](O)CCCCCCCCCCC)[C@@H]2O)O[C@H](CO)[C@@H](OP(=O)(O)O)[C@@H]1OC(=O)C[C@H](O)CCCCCCCCCCC [PIX, 2-deoxy-6-O-(2-deoxy-3-O-[(3R)-3-hydroxytetradecanoyl]-2-{[(3R)-3-hydroxytetradecanoyl]amino}-4-O-phosphono-β-D-glucopyranosyl)-3-O-[(3R)-3-hydroxytetradecanoyl]-2-{[(3R)-3-hydroxytetradecanoyl]amino}-1-O-phosphono-α-D-glucopyranose]			able to cause Aβ42 degradation
CCCCCCCCCCC[C@@H](O)CC(=O)N[C@H]1[C@H](OC[C@H]2OC(O)[C@H](NC(=O)C[C@H](O)CCCCCCCCCCC)[C@@H](OC(=O)C[C@H](O)CCCCCCCCCCC)[C@@H]2O)O[C@H](CO)[C@@H](OP(=O)(O)O)[C@@H]1OC(=O)C[C@H](O)CCCCCCCCCCC (stereo partly drawn) [PXI, 2-deoxy-6-O-(2-deoxy-3-O-[(3R)-3-hydroxytetradecanoyl]-2-{[(3R)-3-hydroxytetradecanoyl]amino}-4-O-phosphono-β-D-glucopyranosyl)-3-O-[(3R)-3-hydroxytetradecanoyl]-2-{[(3R)-3-hydroxytetradecanoyl]amino}-D-glucopyranose]			able to cause Aβ42 degradation
methyl-β-cyclodextrin		suppressed	
CO/C1=C\C(C)=C\[C@@H](C)[C@@H](O)[C@@H](C)C/C(C)=C/C=C/[C@H](OC)[C@@H]([C@@H](C)[C@@H](O)[C@H](C)[C@@]2(O)C[C@@H](O)[C@H](C)[C@@H](C(C)C)O2)OC1=O [BA, bafilomycin A1]	increasing the cell death	decreasing the degradation of Aβ42	
Monophosphoryl lipid A [MPL]			able to cause Aβ42 degradation
O=C(N/N=C/c1ccc(O)c(O)c1)c1cc2ccccc2cc1O [dynasore]		suppressed	
